This is an account of results in patent US9532994B2, “Agents and methods for enhancing bone formation by oxysterols in combination with bone morphogenic proteins” (THE REGENTS OF THE UNIVERSITY OF CALIFORNIA, priority 2003, dated 2017).

Data set [1] has as its system M2-10B4 mouse marrow stromal cell line. The experiment in a line: Alkaline phosphatase (ALP) activity assay in M2 cells. Particulars: for inhibition of oxysterol-induced alkaline phosphatase activity: with 22R+20S (2.5 μM each), 3 days, SC 10 μM, ACA 25 μM, MC 20 μM (FIGS. 9A, 9E). It counts as cell-based. As to the method: (§1) Cells: M2-10B4 mouse marrow stromal cell line obtained from American Type Culture Collection (ATCC, Rockville, Md., U.S.A.) was derived from bone marrow stromal cells of a (C57BL/6J×C3H/HeJ) F1 mouse, and support human and murine myelopoiesis in long-term cultures (as per ATCC) and have the ability to differentiate into osteoblastic and adipocytic cells. Unless specified, these cells were cultured in RPMI 1640 containing 10% heat-inactivated FBS, and supplemented with 1 mM sodium pyruvate, 100 U/ml penicillin, and 100 […] (all from Irvine Scientific).
Alkaline phosphatase activity assay: Colorimetric alkaline phosphatase (ALP) activity assay on whole cell extracts was performed as previously described. […]
Test 2: M2 cells were grown in RPMI medium containing 10% fetal bovine serum (FBS). At confluence, the cells were treated in RPMI containing 5% FBS plus ascorbate at 50 μg/ml and β-glycerophosphate at 3 mM to induce osteoblastic differentiation. Adipogenic differentiation was induced by treating the cells in growth medium plus 10 ˜M troglitazone. A vehicle (C) or oxysterol treatment was applied to cells in a variety of doses (in μM): 20S-Hydroxycholesterol, 25-Hydroxycholesterol, 22R-Hydroxycholesterol; 22S-Hydroxycholesterol; 7-ketocholesterol. Cells were always treated at 90% confluence. After 4 days, alkaline phosphatase activity was determined in whole cell lysates and normalized to protein. Alternatively, MSC cultures were prepared and treated with oxysterols as described above. Cells were treated at 90% confluence with the combination of 22R-Hydroxycholesterol and 20S-Hydroxycholesterol, each at 5 μM, for 4 to 96 hours. The oxysterols where removed and fresh media without oxysterols was added for a total duration of 96 hours. Alkaline phosphatase activity was measured in whole cell extracts and normalized to protein.
M2 cells were treated at 90% confluence with vehicle (C), or oxysterols 20S-Hydroxycholesterol or 22S-Hydroxycholesterol at (0.5 μM) or (1 μM), in the absence or presence of cytochrome P450 inhibitor (SKF525A 10 μM (+)). MSC cultures were also treated at 90% confluence with vehicle (C), or 20S-Hydroxycholesterol (2 μM), in the absence or presence of cytochrome P450 […] (Benzylimidazole 50 μM) or SKF525A (10 μM). After 4 days, alkaline phosphatase activity was measured in whole cell extracts and normalized to protein. […]

Data set [2] concerns M2 cells. Kind of data set: Adipogenesis of M2 cells, oil Red O staining and adipocyte count. It counts as cell-based, mouse. Particulars: 10 μM Tro, 10 μM oxysterols, alone or in combination, 10 days (FIG. 7). As to the method:
(§2) Von Kossa and oil red O staining—Matrix mineralization in cell monolayers was detected by silver nitrate staining as previously described. Oil red O staining for detection of adipocytes was performed as previously described.
Test 1: M2 cells at 90% confluence were treated with vehicle (C), PPAR-γ activator, troglitazone 10 uM (Tro), alone or in combination with 10 μM oxysterols 20S-, 22R-, or 25S-hydroxycholesterol. After 8 days, adipocytes were identified by oil Red O staining and quantified by counting under a phase contrast microscope. FIG. 6A is a bar graph depicting the effect of oxysterols on reducing adipogenesis of MSC.
Test 2: (A) M2 cells at confluence were treated in RPMI containing 10% FBS with control vehicle or 10 μM troglitazone (Tro) in the absence or presence of 10 μM 20S or 22S oxysterols. After 10 days, adipocytes were visualized by oil Red O staining and quantified by light microscopy, shown in (B). Data from a representative of four experiments are shown, reported as the mean SD of quadruplicate determinations (p<0.001 for Tro vs. Tro+20S and Tro+22S). (C) M2 cells were treated at confluence with 10 μM Tro, alone or in combination with 10 μM 20S oxysterol. After 10 days, total RNA was isolated and analyzed for lipoprotein lipase (LPL), adipocyte P2 gene (aP2) or 18S rRNA expression by Northern blotting as described (Ref). Data from densitometric analysis of the Northern blot is shown in (D) as the average of duplicate samples, normalized to 18S rRNA.

The test system of data set [3] is M2-10B4 mouse marrow stromal cell line. Kind of data set: Matrix mineralization in M2 cells (von Kossa staining, 45Ca incorporation assay). The data set is classed as cell-based. The conditions noted are these: for inhibition of oxysterol-induced mineralization: with 22R+20S (2.5 μM each), 10 days, 45Ca incorporation (FIGS. 9B, 9F). As to the method:
as §1, §2
^45Ca incorporation assay—Matrix mineralization in cell monolayers was quantified using the ^45Ca incorporation assay as previously described.
M2 cells at confluence were treated in osteogenic medium with control vehicle or 5 μM oxysterols, alone or in combination as indicated. After 14 days, mineralization was identified by a von Kossa staining, which appears black. FIG. 3C is a depiction of von Kossa staining of M2 cells exposed to various conditions.
M2 cells were treated with control vehicle (C) or a combination of 22R and 20S oxysterols at increasing concentrations. After 14 days, matrix mineralization in cultures was quantified using a ^45Ca incorporation assay. […] FIG. 3D is a bar graph depicting the effect of a combination of oxysterols at various doses on calcium incorporation in M2 cells.
(§3) Next, a combination of 22R and 20S oxysterols (RS, 2.5 μM each) were added in the presence or absence of SC as indicated. After 3 days, ALP activity was measured as described earlier. […] (B) M2 cells were treated as described in (A) and after 10 days matrix mineralization in cultures was quantified by a ^45Ca incorporation assay as described earlier. Results from a representative of three experiments are shown, reported as the mean±SD of quadruplicate determinations, normalized to protein concentration. (C) M2 cells were pretreated with 20 μM SC for 4 hours, followed by the addition of RS in the presence or absence of SC as described above. After 8 days, total RNA was isolated and analyzed for osteocalcin (Osc) and 18S rRNA expression by Northern blotting as previously described. Data from densitometric analysis of the Northern blot is shown in (D) as the average of duplicate samples, normalized to 18S rRNA. (E) M2 cells at confluence were pretreated for 2 hours with control vehicle (C), or PLA2 inhibitors ACA (25 μM) and MCOCF3 (MC, 20 μM), in osteogenic medium. Next, a combination of 22R and 20S oxysterols (RS, 2.5 μM) was added in the presence or absence of the inhibitors as indicated. After 3 days, ALP activity was measured as previously described. Data from a representative of three experiments are shown, reported as the mean±SD of quadruplicate determinations, normalized to protein concentration (p<0.01 for RS vs. RS+ACA and RS+MC). (F) M2 cells were treated as described in (E). After 10 days, matrix mineralization in cultures was quantified using a ^45Ca incorporation assay as previously described. Results from a representative of three experiments are shown, reported as the mean of quadruplicate determinations±SD, normalized to protein concentration (p<0.01 for RS vs. RS+ACA and RS+MC).
(A) M2 cells at confluence were pretreated for four hours with RPMI containing 1% FBS, followed by treatment with control vehicle or 5 μM 20S oxysterol for 1, 4, or 8 hours. Next total cell extracts were prepared and analyzed for levels of native or phosphorylated ERK (pERK) using specific antibodies as previously described.

The subject of data set [4] is M2 cells. Kind of data set: Non-toxic doses in M2 cell cultures. It counts as cell-based, mouse.
Another data set has as its system marrow stromal cells. The experiment in a line: Osteogenic activity/effects of oxysterol combinations in marrow stromal cells, readout not specified. The data set is classed as cell-based, mouse. Particulars: NS-398 at 20 μM, M2 cells.
For data set [5], the system named is osteocalcin mRNA in M2 cells. The experiment in a line: Northern blotting for osteocalcin mRNA in M2 cells. The conditions noted are these: TO treatment, after 10 days. It counts as cell-based, mouse. As to the method: The extent of gene induction was determined by densitometry.
After 4 and 8 days, total RNA from duplicate samples was isolated and analyzed for osteocalcin (Osc) and 28S rRNA expression by Northern blotting as described. FIG. 3E is a radiogram of Northern blotting for osteocalcin mRNA in M2 cells exposed to a control or combination of oxysterols for 4 or 8 days. FIG. 3F is a bar graph depicting the relative demsometric units of osteocalcin mRNA in M2 cells exposed to a control or combination of oxysterols for 4 or 8 days. Data from densitometric analysis of the Northern blot is shown in (F) as the average of duplicate samples, normalized to 28S rRNA.
as §3, with “(E).” for “(E). After 10 days, matrix mineralization in cultures was quantified using a ^45Ca incorporation assay as previously described. Results from a representative of three experiments are shown, reported as the mean of quadruplicate determinations±SD, normalized to protein concentration (p<0.01 for RS vs. RS+ACA and RS+MC).”

As for `CC(C)CCC[C@@H](C)[C@H]1CC[C@H]2[C@@H]3C(=O)C=C4C[C@@H](O)CC[C@]4(C)[C@H]3CC[C@]12C` [7K, 7-ketocholesterol, reference compound], the “induction of alkaline phosphatase activity” value in data set [1] (10 μM oxysterols, osteogenic medium, 3 days (FIG. 3A)) is given as “did not induce”. The “adipogenesis induced by troglitazone” value with M2 cells [2] is “unable to inhibit”. In the case of `CCCCC/C=C\C/C=C\C/C=C\C/C=C\CCCC(=O)C(F)(F)F` [AACOCF3], the “inhibition of oxysterol-induced mineralization” value in data set [3] is “inhibited”. For the same molecule, in data set [1], the “inhibition of oxysterol-induced alkaline phosphatase activity” value is recorded as “inhibited”. As to `CCCCCc1ccc(/C=C/C(=O)Nc2ccccc2C(=O)O)cc1` [ACA], the “inhibition of oxysterol-induced mineralization” value in data set [3] is “inhibited”. Besides, in data set [1], the “inhibition of oxysterol-induced alkaline phosphatase activity” value was “inhibited”. With `CS(=O)(=O)Nc1ccc([N+](=O)[O-])cc1OC1CCCCC1` [NS-398], the highest non-toxic dose with M2 cells [4] was 20 µM. In addition, the “inhibition of osteogenic effects of oxysterol combination” value with marrow stromal cells is listed as “negligible inhibitory effects”. In the case of `COc1cccc(-c2cc(=O)c3ccccc3o2)c1N` [PD98059], in data set [3] (20 μM PD with 22R+20S (5 μM each), 10 days (FIG. 10B)), the “inhibition of oxysterol-induced mineralization by ERK pathway inhibitor” value is reported as “inhibited”.

As to `CCCCC[C@H](O)/C=C/[C@H]1[C@H](O)CC(=O)[C@@H]1C/C=C\CCCC(=O)O` [PGE2, prostaglandin E2], in data set [1] (1 μM PGE2, data not shown), the “reversal of effect of COX-1 inhibitor on oxysterol-induced alkaline phosphatase activity” value is “reversed”.

`CCCC(C(=O)OCCN(CC)CC)(c1ccccc1)c1ccccc1.Cl` [SKF525A]: the “effect on osteogenic effects of the oxysterols (alkaline phosphatase activity)” value in data set [1] (SKF525A 10 μM with 20S or 22S at 0.5 or 1 μM, 4 days (FIG. 5A)) is recorded as “potentiated”.

Turning to `O=S(=O)(c1ccccc1)N(CC(F)(F)F)c1ccc(C(O)(C(F)(F)F)C(F)(F)F)cc1` [TO, TO-901317], the induction of mineralization entry in data set [3] (TO treatment, after 10 days) is recorded as “did not induce”. Also, the “osteoblastic differentiation (alkaline phosphatase activity), LXR ligands” value in data set [1] (1-4 μM, 4 days (FIG. 8)) was “inhibited”. For the same molecule, the “inhibition of alkaline phosphatase activity” value in data set [1] (TO at 1-10 μM) is “dose-dependent inhibition”. For the same molecule, in data set [1] (ligands used at 10 μM, ±SD, control vehicle C: 18±2, p<0.01 for C vs. all ligands), the alkaline phosphatase activity is listed as 3±0.5 activity units/mg protein. For the same molecule, in data set [5], the “induction of osteocalcin gene expression” value was “did not induce”. On to `CCCCC/C=C\C/C=C\C/C=C\C/C=C\CCCC(=O)O` [arachidonic acid], for which the “reversal of effect of PLA2 inhibitors on oxysterol-induced alkaline phosphatase activity” value in data set [1] (25 μM arachidonic acid, data not shown) is listed as “reversed”.
